Where a name gives a salt, the structure may show the parent alone. Read-outs that look alike come from different tables or passages of the source.
Legend:
[1] = target: T1, β1-adrenoceptor (Rattus norvegicus, UniProt P18090); assay: Experiment for measuring β1-adrenoceptor stimulating effects (heart rate increase in isolated rat atria, Magnus method); type: cell-based; conditions: isolated atria of male SD rats, 100% = increase after 10^−8M isoproterenol
T1 construct: Atria of male SD rats (250 to 400 g in body weight) were isolated; from tissue; host or cells: atria of male SD rats
T1 sequence (P18090 whole entry): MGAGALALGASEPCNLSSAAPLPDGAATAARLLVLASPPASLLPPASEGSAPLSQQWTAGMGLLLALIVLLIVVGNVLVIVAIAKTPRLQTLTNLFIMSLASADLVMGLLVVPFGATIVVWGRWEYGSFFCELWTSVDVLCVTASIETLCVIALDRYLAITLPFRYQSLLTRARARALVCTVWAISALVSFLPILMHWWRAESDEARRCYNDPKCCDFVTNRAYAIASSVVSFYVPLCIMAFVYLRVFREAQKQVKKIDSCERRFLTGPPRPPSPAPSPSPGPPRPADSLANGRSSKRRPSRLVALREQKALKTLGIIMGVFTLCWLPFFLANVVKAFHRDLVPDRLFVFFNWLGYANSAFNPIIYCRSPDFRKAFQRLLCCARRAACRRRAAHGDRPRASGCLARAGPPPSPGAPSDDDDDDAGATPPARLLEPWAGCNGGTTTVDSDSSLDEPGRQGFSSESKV
Method: Namely, the experiment was conducted using atria of rats according to the Magnus method. The increment of heart rate after addition of 10^−8M isoproterenol was expressed as 100%. A test compound was added cumulatively.
The Experiment for Measuring β1-adrenoceptor Stimulating Effects
Atria of male SD rats (250 to 400 g in body weight) were isolated and the experiment was conducted according to the Magnus method. The preparations with a tension of 0.5 g were exposed to Krebs-Henseleit solution maintained at 37° C. and gassed with a mixture of 95% oxygen and 5% carbon dioxide. The cardiac contractility was isometrically measured with a force-displacement transducer, and heart rate was recorded via a tachometer. A test compound was added cumulatively. Increase of heart rate per minute after addition of 10^−8M isoproterenol was expressed as 100%.

[2] = target: β3-adrenoceptor (Mustela putorius furo, UniProt M3YEU4); assay: Experiment for measuring β3-adrenoceptor stimulating effects (relaxation of isolated ferret urinary bladder smooth muscle, Magnus method); type: cell-based; conditions: read-out: EC50 value (concentration required to produce 50% of the relaxation of urinary bladder smooth muscle); isolated male ferret urinary bladder strips; 0% = maximal relaxation by 10^−5M forskolin
Chain of β3-adrenoceptor (M3YEU4 1-435): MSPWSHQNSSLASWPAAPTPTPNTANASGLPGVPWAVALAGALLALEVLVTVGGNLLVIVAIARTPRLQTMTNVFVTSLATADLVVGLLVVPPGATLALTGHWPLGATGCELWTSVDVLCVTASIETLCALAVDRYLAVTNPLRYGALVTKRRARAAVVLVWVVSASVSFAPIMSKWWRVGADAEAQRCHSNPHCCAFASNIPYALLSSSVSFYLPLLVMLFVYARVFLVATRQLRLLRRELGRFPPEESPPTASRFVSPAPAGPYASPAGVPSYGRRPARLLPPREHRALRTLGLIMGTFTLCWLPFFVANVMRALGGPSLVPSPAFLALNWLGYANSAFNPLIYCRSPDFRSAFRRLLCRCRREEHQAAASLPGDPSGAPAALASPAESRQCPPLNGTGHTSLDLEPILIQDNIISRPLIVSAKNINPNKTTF
Method: Namely, urinary bladders of ferrets were isolated and preparations were made. The experiment was conducted according to the Magnus method. The […] tension without addition of a test compound is expressed as 100%, and the tension of maximal relaxation after addition of 10^−5M forskolin was expressed as 0%. The test compound was added cumulatively.
The Experiment for Measuring β3-adrenoceptor Stimulating Effects
Urinary bladders of male ferrets (1100 to 1400 g in body weight) were isolated and urinary bladder smooth muscle strips of approximately 10 mm in length and approximately 2 mm in width were prepared. The experiment was conducted according to the Magnus method. The preparations with a tension of 1 g were exposed to Krebs-Henseleit solution maintained at 37° C. and gassed with a mixture of 95% oxygen and 5% carbon dioxide. Basal tensions of urinary bladder were isometrically measured with a force-displacement transducer and recorded. A test compound was cumulatively added to the Magnus bath every about 5 minutes. Tension of urinary bladder smooth muscle before addition of the test compound was expressed as 100% and tension of maximal relaxation induced by 10^−5M of forskolin was expressed as 0%.

[3] = target: T2, β2-adrenoceptor (Rattus norvegicus, UniProt P10608); assay: Experiment for measuring β2-adrenoceptor stimulating effects (inhibition of spontaneous contraction of isolated pregnant rat uterus, Magnus method); type: cell-based; conditions: isolated uteri of pregnant SD rats (pregnancy day 21), sum of contractions during 5 minutes
T2 construct: Uteri of pregnant SD rats (pregnancy day 21) were isolated; from tissue; host or cells: uterus (myometrium strips) of pregnant SD rats, day 21
T2 sequence (P10608 whole entry): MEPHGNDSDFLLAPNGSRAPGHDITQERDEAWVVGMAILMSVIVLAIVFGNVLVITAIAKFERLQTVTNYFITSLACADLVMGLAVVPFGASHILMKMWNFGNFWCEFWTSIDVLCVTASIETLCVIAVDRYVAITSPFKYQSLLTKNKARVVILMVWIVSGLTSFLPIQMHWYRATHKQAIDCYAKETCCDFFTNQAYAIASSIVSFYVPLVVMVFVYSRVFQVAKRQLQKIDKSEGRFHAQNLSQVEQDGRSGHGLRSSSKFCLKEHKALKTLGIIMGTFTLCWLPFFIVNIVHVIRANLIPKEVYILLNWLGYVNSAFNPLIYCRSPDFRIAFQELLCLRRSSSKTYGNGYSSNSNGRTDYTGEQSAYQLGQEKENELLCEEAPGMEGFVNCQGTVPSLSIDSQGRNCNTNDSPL
Method: Also, uteri of pregnant rats were isolated and preparations were made. The experiment was conducted according to the Magnus method. The sum of uterine contractions during 5 minutes before addition of a test compound was expressed as 100%. The test compound was added cumulatively.
The Experiment for Measuring β2-adrenoceptor Stimulating Effects
Uteri of pregnant SD rats (pregnancy day 21) were isolated and longitudinal strips of approximately 15 mm in length and approximately 5 mm in width free from the basal plate were prepared. The experiment was conducted according to the Magnus method. The preparations with a tension of 0.5 g were exposed to Locke-Ringer solution maintained at 37° C. and gassed with a mixture of 95% oxygen and 5% carbon dioxide. Spontaneous contractions of myometrium were isometrically measured with a force-displacement transducer and recorded. A test compound was cumulatively added to the Magnus bath every 5 minutes.

[4] = system: male ICR rats; assay: Acute toxicity test; type: in vivo, rat; conditions: male ICR rats of 4 weeks age, oral, 2 g/kg, during 24 hours after the administration, hydrochloride
Method: Furthermore, the compounds represented by the above general formula (I) of the present invention are very safe.
To male ICR rats of 4 weeks age was administered orally ethyl 2-[2-chloro-4-[2-[[(1S,2R)-2-hydroxy-2-(4-hydroxyphenyl)1-methylethyl]amino]ethyl]phenoxy]acetate hydrochloride at a does of 2 g/kg.

| EC50 [3] [µM] | Compound | EC50 [1] [µM] | also measured |
| --- | --- | --- | --- |
| – | C[C@H](Cc1ccc(OCC(=O)O)cc1)NC[C@H](O)c1cccc(Cl)c1 [(R,R)-BRL-37344, reference compound] | – | EC50 ([1]; read-out: EC50 value (concentration required to produce 50% increase of heart rate per minute)): 0.27 µM; EC50 [2]: 0.0016 µM; EC50 ([3]; read-out: EC50 value (concentration required to produce 50% of the inhibition of uterine contraction)): 0.009 µM |
| 10 | C[C@H](NCCc1ccc(OCC(=O)O)c(Br)c1)[C@H](O)c1ccc(O)cc1 [Compound 24] | > 100 | – |
| – | C[C@H](NCCc1ccc(OCC(=O)O)c(Cl)c1)[C@H](O)c1ccc(O)cc1 [Compound 25, 2-[2-Chloro-4-[2-[[(1S,2R)-2-hydroxy-2-(4-hydroxyphenyl)-1-methylethyl]amino]ethyl]phenoxy]acetic acid] | 70 | – |
| 1.4 | C[C@H](NCCc1cc(Cl)c(OCC(=O)O)c(Cl)c1)[C@H](O)c1ccc(O)cc1 [Compound 26] | > 100 | – |
| 0.49 | C[C@H](NCCc1cc(Cl)c(OCC(=O)O)cc1Cl)[C@H](O)c1ccc(O)cc1 [Compound 27, 2-[2,5-Dichloro-4-[2-[[(1S,2R)-2-hydroxy-2-(4-hydroxyphenyl)-1-methylethyl]amino]ethyl]phenoxy]acetic acid] | 49 | – |
| 1.8 | C[C@H](NCCc1ccc(OCC(=O)O)c(F)c1)[C@H](O)c1ccc(O)cc1 [Compound 28, 2-[2-Fluoro-4-[2-[[(1S,2R)-2-hydroxy-2-(4-hydroxyphenyl)-1-methylethyl]amino]ethyl]phenoxy]acetic acid] | 30 | – |
| 25 | CCOc1cc(CCN[C@@H](C)[C@H](O)c2ccc(O)cc2)ccc1OCC(=O)O [Compound 30, 2-[2-Ethoxy-4-[2-[[(1S,2R)-2-hydroxy-2-(4-hydroxyphenyl)-1-methylethyl]amino]ethyl]phenoxy]acetic acid] | > 100 | – |
| 1.9 | C[C@H](NCCc1ccc(OCC(=O)O)c(OCc2ccccc2)c1)[C@H](O)c1ccc(O)cc1 [Compound 31, 2-[2-Benzyloxy-4-[2-[[(1S,2R)-2-hydroxy-2-(4-hydroxyphenyl)-1-methylethyl]amino]ethyl]phenoxy]acetic acid] | > 100 | – |
| 13 | Cc1cc(CCN[C@@H](C)[C@H](O)c2ccc(O)cc2)ccc1OCC(=O)O [Compound 33] | 31 | – |
| 1.8 | Cc1cc(OCC(=O)O)c(C)cc1CCN[C@@H](C)[C@H](O)c1ccc(O)cc1 [Compound 35, 2-[4-[2-[[(1S,2R)-2-Hydroxy-2-(4-hydroxyphenyl)-1-methylethyl]amino]ethyl]-2,5-dimethylphenoxy]acetic acid] | 38 | – |
| 20 | C[C@H](NCCc1ccc(OCC(=O)O)c(C(F)(F)F)c1)[C@H](O)c1ccc(O)cc1 [Compound 36, 2-[4-[2-[[(1S,2R)-2-Hydroxy-2-(4-hydroxyphenyl)-1-methylethyl]amino]ethyl]-2-(trifluoromethyl)phenoxy]acetic acid hydrochloride] | > 100 | – |
| 76 | C[C@H](NCCc1ccc(OCC(=O)O)c(C#N)c1)[C@H](O)c1ccc(O)cc1 [Compound 37, 2-[2-Cyano-4-[2-[[(1S,2R)-2-hydroxy-2-(4-hydroxyphenyl)-1-methylethyl]amino]ethyl]phenoxy]acetic acid] | 33 | – |
| 2.6 | C[C@H](NCCc1ccc(OCC(=O)O)c([N+](=O)[O-])c1)[C@H](O)c1ccc(O)cc1 [Compound 38, 2-[4-[2-[[(1S,2R)-2-Hydroxy-2-(4-hydroxyphenyl)-1-methylethyl]amino]ethyl]-2-nitrophenoxy]acetic acid] | 58 | – |
| 1 | CCOC(=O)COc1ccc(CCN[C@@H](C)[C@H](O)c2ccc(O)cc2)cc1NC=O [Compound 40, Ethyl 2-[2-Formylamino-4-[2-[[(1S,2R)-2-hydroxy-2-(4-hydroxyphenyl)-1-methylethyl]amino]ethyl]phenoxy]acetate] | 3.5 | – |
| 53 | C[C@H](NCCc1ccc(OCC(=O)O)c(C(=O)N(C)C)c1)[C@H](O)c1ccc(O)cc1 [Compound 43, 2-[2-(Dimethylaminocarbonyl)-4-[2-[[(1S,2R)-2-hydroxy-2-(4-hydroxyphenyl)-1-methylethyl]amino]ethyl]phenoxy]acetic acid] | 58 | – |
| 0.21 | C[C@H](NCCc1ccc(OCC(=O)O)c(O)c1)[C@H](O)c1ccc(O)cc1 [Compound 46, 2-[2-Hydroxy-4-[2-[[(1S,2R)-2-hydroxy-2-(4-hydroxyphenyl)-1-methylethyl]amino]ethyl]phenoxy]acetic acid] | 21 | – |
| 17 | C[C@H](NCCc1ccc(OCC(=O)O)c(N(C)C)c1)[C@H](O)c1ccc(O)cc1 [Compound 47, 2-[2-Dimethylamino-4-[2-[[(1S,2R)-2-hydroxy-2-(4-hydroxyphenyl)-1-methylethyl]amino]ethyl]phenoxy]acetic acid] | > 100 | – |
| – | CCOC(=O)COc1ccc(CCN[C@@H](C)[C@H](O)c2ccc(O)cc2)cc1Cl.Cl [Compound 48, Ethyl 2-[2-chloro-4-[2-[[(1S,2R)-2-hydroxy-2-(4-hydroxyphenyl)-1-methylethyl]amino]ethyl]phenoxy]acetate hydrochloride] | 17 | Death of animals (acute toxicity) ([4]; listed as ethyl 2-[2-chloro-4-[2-[[(1S,2R)-2-hydroxy-2-(4-hydroxyphenyl)1-methylethyl]amin): No death of animals was observed; Death of animals (acute toxicity) ([4]; listed as ethyl 2-[2-chloro-4-[2-[[(1S,2R)-2-hydroxy-2-(4-hydroxyphenyl)-1-methylethyl]ami): no death was observed |
| 0.061 | CCOC(=O)COc1cc(Cl)c(CCN[C@@H](C)[C@H](O)c2ccc(O)cc2)cc1Cl [Compound 49, Ethyl 2-[2,5-dichloro-4-[2-[[(1S,2R)-2-hydroxy-2-(4-hydroxyphenyl)-1-methylethyl]amino]ethyl]phenoxy]acetate hydrochloride] | 6.8 | – |

| Compound | EC50 [3] [µM] | EC50 [1] [µM] | also measured |
| --- | --- | --- | --- |
| COc1cc(CCN[C@@H](C)[C@H](O)c2ccc(O)cc2)ccc1OCC(=O)O [Compound 29, 2-(4-[2-[[(1S,2R)-2-Hydroxy-2-(4-hydroxyphenyl)-1-methylethyl]amino]ethyl]-2-methoxyphenoxy]acetic acid] | 3.9 | > 100 | – |

Reference: patent US6538152B1, “Phenoxyacetic acid derivatives and medicinal compositions containing the same” (Kissei Pharmaceutical Co., Ltd., priority 1998, dated 2003)
